Results taken from patent publication US20060204993A1, “Methods and compositions for modulating CHK2 pathways and methods for screening for same” (priority 2005, published 2006).
Residues, ends and D or L forms follow the SMILES beside them. *: point of attachment. Cbz = O=C(OCc1ccccc1)*; CH2F = FC*

Experiments:
[1] = system: DLD1-Chk2 cells; assay: Apoptosis and mitosis markers (Annexin-V, Pancaspase, phospho-Histone H3) and Z-VAD rescue in tet-induced cells; type: cell-based, human; settings: DLD1-tet-Chk2#17 cells, +tet six days
Method: FIG. 2A is a graph showing the DNA contents of cells as measured by flow cytometry (upper panel) and the percentages of Annexin-V-positive cells and Pancaspase-positive cells determined by flow cytometric analysis (bottom panels). FIG. 2B is a photograph of fluorescent microscopy showing DLD1-tet-Chk2# 17 cells cultured in the presence or absence of tetracycline following staining with DePsipher Dye (Trevigen) and monitoring the intensity of the monomer ([…]) and aggregates ([…]) of DePsipher. FIG. 2C is a photograph of immunoblots showing DLD1-tet-Chk2 #17 cell lysates following tetracycline treatment. Lysates were prepared and subjected to immunoblotting with the antibodies indicated on the left. FIG. 2D is a series of graphs of flow cytometric analysis showing the DNA content, caspase activity and percentages of DLD1-tet-Chk2#17 cells undergoing apoptosis following treated with Z-VAD- or mock-treated (None) and cultured in the presence (+tet) or absence (−tet) of tetracycline for six days.
To investigate the effect of Chk2 expression on cell cycle progression, the cell cycle profiles of DLD1-Chk2 clones (#17 and #22) were analyzed after Chk2 induction by addition of tetracycline. […]

[2] = system: DLD1-Chk2 clones (#17 and #22); assay: Cell cycle profile (DNA content by flow cytometry) after tetracycline induction of Chk2; type: cell-based, human

## CC(NC(=O)C(NC(=O)OCc1ccccc1)C(C)C)C(=O)NC(CC(=O)O)C(=O)CF (stereo not drawn) [Z-VAD] (Cbz-Val-Ala-Asp-CH2F; configuration not given here)
[1]
  rescue of Chk2-induced cell death: partially rescued

## CN(C)[C@@H]1C(O)=C(C(N)=O)C(=O)[C@@]2(O)C(O)=C3C(=O)c4c(O)cccc4[C@@](C)(O)[C@H]3C[C@@H]12 [tetracycline]
[2]; uninduced 20%
  cell population with G2/M DNA content: 30-35%
[2]; uninduced ~4%
  cell population with sub-G1 DNA content: ~40%
[2]; uninduced ~25%
  cell population with S DNA content: ~9%
[2]; uninduced ~52%
  cell population with G1 DNA content: ~25%
